What was measured:
plasma cytokines = assay: Plasma cytokine levels in rodents after lower thoracic radiation; type: in vivo; details: LTI + 512, 5 mg/kg 512
Text: Ctl, control with no treatment. LTI, lower thoracic radiation, LTI+512, radiation, and 512. The cytokine phenotype is anti-inflammatory where IL-6 is an anti-inflammatory cytokine required for controlling local or systemic acute inflammatory responses and IL-1 is pro inflammatory and so forth.

[1] = tested on: HEK293 cells having TCF/LEF luciferase reporter construct; assay: TCF/LEF luciferase reporter assay for canonical WNT activity; type: cell-based; details: LiCl 10 mM, 24 hr
Method: To determine the canonical WNT activity in 512 (28.78 μM) HEK293 cells having TCF/LEF luciferase reporter construct were treated with 512 or vehicle control. LiCl (10 mM) treatment was used as positive control for luciferase activity. Luciferase activity was determined 24 hr after using Dual-Luciferase® Reporter Assay System (Promega) as per manufacturer's protocol. HEK293 cells having FOPFLASH construct were used as negative control. […] WNT-β catenin signaling is well known to promote the self renewal and differentiation of LGR5+ epithelial (lung, oral, intestinal) stem cells.

Row | SMILES | plasma IL-6 level (plasma cytokines; Ctl 7, LTI 15) | plasma KC level (plasma cytokines; Ctl 10, LTI 210) | plasma IL-23 level (plasma cytokines; Ctl 13, LTI 79) | plasma MCP-1 level (plasma cytokines; Ctl 17, LTI 103) | plasma MIP-1b level (plasma cytokines; Ctl 25, LTI 88) | plasma IL-1b level (plasma cytokines; Ctl 32, LTI 50) | luciferase activity (positive control) [1]
1 | O=[N+]([O-])c1ccc(S(=O)(=O)N2CCN(c3ccccc3)CC2)cc1 [Compound 512, 1-[(4-nitrobenezene)sulfonyl]-4-phenyl piperazine] | 88 | 245 | 23 | 77 | 13 | 7 | 
2 | [Cl-].[Li+] [LiCl] |  |  |  |  |  |  | significant increase in Luciferase activity
